Data as given in patent publication US9139557B2, “Carboxamide compounds and their use as calpain inhibitors” (Abbott GmbH & Co. KG, priority 2006, dated 2015).

Assays:
Type in all cases: biochemical
cathepsin B = target: T1, cathepsin B (Homo sapiens, UniProt P07858); assay: Cathepsin B enzyme inhibition in vitro (kinetic fluorescence assay); conditions: Ki(cathepsin B)/Ki(calpain) ratio
T1 construct: cathepsin B—isolated from human liver; purchased Calbiochem 219362; host or cells: human liver (tissue isolate)
Description: (§1) Testing for blockade of the corresponding enzymic activities was carried out by means of kinetic fluorescence assays (excitation 390 nm, emission 460 nm).
(§2) Apparent Ki values were calculated from the experimentally determined IC50 values by the Cheng-Prussoff relation assuming a reversible competitive enzyme inhibition. The Km values of the substrates used under the assay conditions indicated above were: 90 μM (Z-Phe-Arg-AMC, cathepsin B), 10 μM (Z-Gly-Pro-Arg-AMC, cathepsin K), 2 μM (Z-Phe-Arg-AMC, cathepsin L), and 30 μM (Z-Val-Val-Arg-AMC, cathepsin S).
(§3) The indicated Ki values are averages of the inhibition constants calculated on the basis of 2 to 4 independent dose-effect plots.
(§4) • 1. Calpain I: • 20 nM calpain-I—isolated from human erythrocytes (Calbiochem #208713), 100 μM Suc-Leu-Tyr-AMC (Bachem #1-1355) as substrate in buffer with 62 mM imidazole, 0.3 mM CaCl2, 0.10% CHAPS, 0.05% BSA, 1 mM DTT at pH 7.3 and room temperature. • 2. Cathepsin B: • 0.25 nM cathepsin B—isolated from human liver (Calbiochem #219362), 100 μM Z-Phe-Arg-AMC (Bachem #1-1160) as substrate 50 mM MES, 2 mM EDTA, 0.05% Brij 35, 2.5 mM L-cysteine, pH 6.0, room temperature. • 3. Cathepsin K: • 3 nM cathepsin K—activated from recombinant human procathepsin K from E. coli (Calbiochem #342001), 10 μM Z-Gly-Pro-Arg-AMC (Biomol #P-142) as substrate in 50 mM MES, 2 mM EDTA, 0.05% Brij 35, 2.5 mM L-cysteine, pH 6.0, room temperature. • 4. Cathepsin L: • 1 nM cathepsin L—isolated from human liver (Calbiochem #219402), 2 μM Z-Phe-Arg-AMC (Bachem #1-1160) as substrate in 50 mM MES, 2 mM EDTA, 0.05% Brij 35, 2.5 mM L-cysteine, pH 6.0, room temperature. • 5. Cathepsin S: • 0.5 nM recombinant human cathepsin S from E. coli (Calbiochem #219343), 20 μM Z-Val-Val-Arg-AMC (Bachem #1-1540) as substrate in 50 mM MES, 2 mM EDTA, 0.05% Brij 35, 2.5 mM L-cysteine, pH 6.0, room temperature.

cathepsin K = target: T2, cathepsin K (Homo sapiens, UniProt P43235); assay: Cathepsin K enzyme inhibition in vitro (kinetic fluorescence assay); conditions: Ki(cathepsin K)/Ki(calpain) ratio
T2 construct: purchased Calbiochem 342001; host or cells: E. coli
T2 sequence (P43235 115-329): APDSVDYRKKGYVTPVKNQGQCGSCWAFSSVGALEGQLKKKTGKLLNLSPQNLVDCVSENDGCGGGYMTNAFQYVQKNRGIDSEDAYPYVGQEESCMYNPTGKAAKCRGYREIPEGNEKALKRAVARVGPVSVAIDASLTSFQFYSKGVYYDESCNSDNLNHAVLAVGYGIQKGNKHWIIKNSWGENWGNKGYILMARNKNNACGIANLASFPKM
Description: as §1, §2, §3, §4

cathepsin L = target: T3, cathepsin L (Homo sapiens, UniProt P07711); assay: Cathepsin L enzyme inhibition in vitro (kinetic fluorescence assay); conditions: Ki(cathepsin L)/Ki(calpain) ratio
T3 construct: cathepsin L—isolated from human liver; purchased Calbiochem 219402; host or cells: human liver (tissue isolate)
T3 sequence (P07711 114-333): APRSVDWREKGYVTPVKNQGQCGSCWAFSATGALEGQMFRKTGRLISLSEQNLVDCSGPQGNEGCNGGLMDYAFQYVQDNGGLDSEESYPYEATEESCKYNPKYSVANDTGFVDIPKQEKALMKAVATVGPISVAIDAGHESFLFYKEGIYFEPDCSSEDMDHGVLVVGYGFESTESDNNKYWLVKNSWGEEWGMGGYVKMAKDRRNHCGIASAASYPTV
Method in brief: (§5)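 Kinetic fluorescence (ex 390/em 460 nm), room temperature: calpain-I (human erythrocyte, 20 nM) with 100 µM Suc-Leu-Tyr-AMC, imidazole/CaCl2 pH 7.3; cathepsin B (liver, 0.25 nM), 100 µM Z-Phe-Arg-AMC; L (liver, 1 nM), 2 µM Z-Phe-Arg-AMC; S (recombinant, 0.5 nM), 20 µM Z-Val-Val-Arg-AMC; cathepsins in MES/EDTA/cysteine pH 6.0. Apparent Ki via Cheng-Prusoff, 2–4 curves averaged.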

cathepsin S = target: T4, cathepsin S (Homo sapiens, UniProt P25774); assay: Cathepsin S enzyme inhibition in vitro (kinetic fluorescence assay); conditions: Ki(cathepsin S)/Ki(calpain) ratio
T4 construct: purchased Calbiochem 219343; host or cells: E. coli
T4 sequence (P25774 115-331): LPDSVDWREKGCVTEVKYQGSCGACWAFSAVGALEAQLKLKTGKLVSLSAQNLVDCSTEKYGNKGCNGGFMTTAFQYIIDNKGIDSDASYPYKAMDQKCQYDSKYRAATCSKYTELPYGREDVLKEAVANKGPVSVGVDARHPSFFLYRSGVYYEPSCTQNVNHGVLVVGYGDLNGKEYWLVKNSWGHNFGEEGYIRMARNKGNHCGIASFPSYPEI
Method in brief: as §5

SMILES | Sel cat. B (cathepsin B) | Sel cat. K (cathepsin K) | Sel cat. L (cathepsin L) | Sel cat. S (cathepsin S)
NC(=O)C(=O)C(Cc1ccccc1)NC(=O)c1cccnc1-n1cc2c(n1)-c1ccccc1CC2 (stereo not shown) [Example 63, N-(3-Amino-1-benzyl-2,3-dioxopropyl)-2-(4,5-dihydro-2H-benzo[g]indazol-2-yl)nicotinamide] | + (+ means 10≦Ki(cathepsin B)/Ki(calpain)<30) | + (+ means 10≦Ki(cathepsin K)/Ki(calpain)<30) | ++ (++ means a Ki(cathepsin L)/Ki(calpain) ratio of ≧50) | ++ (++ means a Ki(cathepsin S)/Ki(calpain) ratio of ≧100)
COc1c(C)cc(C)cc1-c1ccn(-c2ncccc2C(=O)NC(Cc2ccccc2)C(=O)C(N)=O)n1 (stereo not shown) [Example 121, N-[3-Amino-2,3-dioxo-1-(phenylmethyl)propyl]-2-{3-[3,5-dimethyl-2-(methyloxy)phenyl]-1H-pyrazol-1-yl}pyridine-3-carboxamide] | ++ (++ means a Ki(cathepsin B)/Ki(calpain) ratio of ≧30) | ++ (++ means a Ki(cathepsin K)/Ki(calpain) ratio of ≧30) | ++ (++ means a Ki(cathepsin L)/Ki(calpain) ratio of ≧50) | ++ (++ means a Ki(cathepsin S)/Ki(calpain) ratio of ≧100)
CC(C)c1ccc(-c2ccn(-c3ncccc3C(=O)NC(Cc3ccccc3)C(=O)C(N)=O)n2)cc1 (stereo not shown) [Example 87, N-[3-Amino-2,3-dioxo-1-(phenylmethyl)propyl]-2-{3-[4-(1-methylethyl)phenyl]-1H-pyrazol-1-yl}pyridine-3-carboxamide] | ++ (++ means a Ki(cathepsin B)/Ki(calpain) ratio of ≧30) | ++ (++ means a Ki(cathepsin K)/Ki(calpain) ratio of ≧30) | ++ (++ means a Ki(cathepsin L)/Ki(calpain) ratio of ≧50) | ++ (++ means a Ki(cathepsin S)/Ki(calpain) ratio of ≧100)
NC(=O)C(=O)C(Cc1ccccc1)NC(=O)c1cccnc1-n1ccc(-c2ccccc2C(F)(F)F)n1 (stereo not shown) [Example 72, N-(3-Amino-1-benzyl-2,3-dioxopropyl)-2-{3-[2-(trifluoromethyl)phenyl]-1H-pyrazol-1-yl}nicotinamide] | + (+ means 10≦Ki(cathepsin B)/Ki(calpain)<30) | + (+ means 10≦Ki(cathepsin K)/Ki(calpain)<30) | + (+ means 30≦Ki(cathepsin L)/Ki(calpain)<50) | ++ (++ means a Ki(cathepsin S)/Ki(calpain) ratio of ≧100)
NC(=O)C(=O)C(Cc1ccccc1)NC(=O)c1cccnc1-n1ccc(C23CC4CC(CC(C4)C2)C3)n1 (stereo not shown) [Example 193, N-[3-Amino-2,3-dioxo-1-(phenylmethyl)propyl]-2-(3-tricyclo[3.3.1.1^3,7]dec-1-yl-1H-pyrazol-1-yl)pyridine-3-carboxamide] | ++ (++ means a Ki(cathepsin B)/Ki(calpain) ratio of ≧30) | ++ (++ means a Ki(cathepsin K)/Ki(calpain) ratio of ≧30) | ++ (++ means a Ki(cathepsin L)/Ki(calpain) ratio of ≧50) | ++ (++ means a Ki(cathepsin S)/Ki(calpain) ratio of ≧100)
NC(=O)C(=O)C(Cc1ccccc1)NC(=O)c1cccnc1-n1cc2c(n1)-c1cccc(Cl)c1OC2 (stereo not shown) [Example 175, N-[3-Amino-2,3-dioxo-1-(phenylmethyl)propyl]-2-(6-chlorochromeno[4,3-c]pyrazol-2(4H)-yl)pyridine-3-carboxamide] | ++ (++ means a Ki(cathepsin B)/Ki(calpain) ratio of ≧30) | ++ (++ means a Ki(cathepsin K)/Ki(calpain) ratio of ≧30) | ++ (++ means a Ki(cathepsin L)/Ki(calpain) ratio of ≧50) | ++ (++ means a Ki(cathepsin S)/Ki(calpain) ratio of ≧100)
NC(=O)C(=O)C(Cc1ccc(F)cc1)NC(=O)c1cccnc1-n1ccc(-c2ccc(Cl)cc2Cl)n1 (stereo not shown) [Example 114, N-{-3-Amino-1-[(4-fluorophenyl)methyl]-2,3-dioxopropyl}-2-[3-(2,4-dichlorophenyl)-1H-pyrazol-1-yl]pyridine-3-carboxamide] | ++ (++ means a Ki(cathepsin B)/Ki(calpain) ratio of ≧30) | ++ (++ means a Ki(cathepsin K)/Ki(calpain) ratio of ≧30) | ++ (++ means a Ki(cathepsin L)/Ki(calpain) ratio of ≧50) | ++ (++ means a Ki(cathepsin S)/Ki(calpain) ratio of ≧100)
COc1ccc(CC(NC(=O)c2cccnc2-n2ccc(-c3ccc(F)cc3Cl)n2)C(=O)C(N)=O)cc1 (stereo not shown) [Example 111, N-(3-Amino-1-{[4-(methyloxy)phenyl]methyl}-2,3-dioxopropyl)-2-[3-(2-chloro-4-fluorophenyl)-1H-pyrazol-1-yl]pyridine-3-carboxamide] | ++ (++ means a Ki(cathepsin B)/Ki(calpain) ratio of ≧30) | ++ (++ means a Ki(cathepsin K)/Ki(calpain) ratio of ≧30) | ++ (++ means a Ki(cathepsin L)/Ki(calpain) ratio of ≧50) | ++ (++ means a Ki(cathepsin S)/Ki(calpain) ratio of ≧100)
NC(=O)C(=O)C(Cc1ccc(Cl)cc1)NC(=O)c1cccnc1-n1ccc(-c2ccc(F)cc2)n1 (stereo not shown) [Example 67, N-[3-Amino-1-(4-chlorobenzyl)-2,3-dioxopropyl]-2-[3-(4-fluorophenyl)-1H-pyrazol-1-yl]nicotinamide] | + (+ means 10≦Ki(cathepsin B)/Ki(calpain)<30) | + (+ means 10≦Ki(cathepsin K)/Ki(calpain)<30) | ++ (++ means a Ki(cathepsin L)/Ki(calpain) ratio of ≧50) | ++ (++ means a Ki(cathepsin S)/Ki(calpain) ratio of ≧100)
COc1ccc(-c2ccn(-c3ncccc3C(=O)NC(Cc3ccccc3)C(=O)C(N)=O)n2)c(OC)c1 (stereo not shown) [Example 117, N-[3-Amino-2,3-dioxo-1-(phenylmethyl)propyl]-2-{3-[2,4-bis(methyloxy)phenyl]-1H-pyrazol-1-yl}pyridine-3-carboxamide] | ++ (++ means a Ki(cathepsin B)/Ki(calpain) ratio of ≧30) | ++ (++ means a Ki(cathepsin K)/Ki(calpain) ratio of ≧30) | ++ (++ means a Ki(cathepsin L)/Ki(calpain) ratio of ≧50) | ++ (++ means a Ki(cathepsin S)/Ki(calpain) ratio of ≧100)
NC(=O)C(=O)C(Cc1ccc(OC(F)(F)F)cc1)NC(=O)c1cccnc1-n1ccc(-c2ccccc2)n1 (stereo not shown) [Example 133] | ++ (++ means a Ki(cathepsin B)/Ki(calpain) ratio of ≧30) | ++ (++ means a Ki(cathepsin K)/Ki(calpain) ratio of ≧30) | ++ (++ means a Ki(cathepsin L)/Ki(calpain) ratio of ≧50) | ++ (++ means a Ki(cathepsin S)/Ki(calpain) ratio of ≧100)
Cc1ccccc1-c1ccn(-c2ncccc2C(=O)NC(Cc2ccccc2)C(=O)C(N)=O)n1 (stereo not shown) [Example 93, N-[3-Amino-2,3-dioxo-1-(phenylmethyl)propyl]-2-[3-(2-methylphenyl)-1H-pyrazol-1-yl]pyridine-3-carboxamide] | ++ (++ means a Ki(cathepsin B)/Ki(calpain) ratio of ≧30) | + (+ means 10≦Ki(cathepsin K)/Ki(calpain)<30) | ++ (++ means a Ki(cathepsin L)/Ki(calpain) ratio of ≧50) | ++ (++ means a Ki(cathepsin S)/Ki(calpain) ratio of ≧100)
NC(=O)C(=O)C(Cc1ccccc1)NC(=O)c1cccnc1-n1ccc(-c2cc(F)cc(F)c2)n1 (stereo not shown) [Example 91, N-[3-Amino-2,3-dioxo-1-(phenylmethyl)propyl]-2-[3-(3,5-difluorophenyl)-1H-pyrazol-1-yl]pyridine-3-carboxamide] | ++ (++ means a Ki(cathepsin B)/Ki(calpain) ratio of ≧30) | + (+ means 10≦Ki(cathepsin K)/Ki(calpain)<30) | ++ (++ means a Ki(cathepsin L)/Ki(calpain) ratio of ≧50) | ++ (++ means a Ki(cathepsin S)/Ki(calpain) ratio of ≧100)
